Assay results from patent US10980850B2, “Use of IAP inhibitor and oncolytic virus in preparation of anti-tumor drug” (Guangzhou Virotech Pharmaceutical Co., Ltd., priority 2016, dated 2021).

Columns and labels:
pancreatic cancer = conditions: 10 μmol/L alone; cells without drugs 17%; cited from earlier work
[1] = tested on: human colorectal cancer cell line HCT116; test: MTT survival rate of HCT116 cells (LCL161/Birinapant, M1 virus); assay type: cell-based; conditions: MTT 72 hours, 5 μM LCL161, MOI of M1 not stated (FIG. 2(A))
Description: a) Inoculation of cells and administration treatment: cells in the exponential growth phase were selected and added into a DMEM complete culture medium (containing 10% fetal bovine serum and 1% penicillin/streptomycin (Life Technologies)) to prepare a cell suspension. The cells were inoculated into a 96-well culture plate at a density of 4×10^3/well. After 12 hours, the cells were completely adherent to the wells. The experiment was divided into a control group and a single drug group (using 5 μM LCL161 or Birinapant alone), a group infected with M1 and a group treated with LCL161/M1 or Birinapant/M1. In M1-containing assays, virus was provided at varying MOI. The concentration of LCL161 or Birinapant was 5 μM • b) Reaction of MTT with succinate dehydrogenase in the cells: 72 hours after culture, 20 μl MTT (5 mg/ml) was added into each well, and was incubated for a further 4 hours. After incubation, granular blue and purple formazan crystals formed in the living cells were observed by microscopic examination. • c) Dissolution of formazan particles: those cultures having cells with formazan crystals were further processed as follows. […] The optical density (OD value) of each well was detected in an enzyme linked detector at a wavelength of 570 nm. […] The calculated survival rate of the cells=OD value of the drug treatment group/OD value of the control group×100%. […]

[2] = tested on: transplantable tumor of HCT116 cancer strain; test: Transplantable tumor of HCT116 in nude mice; assay type: in vivo, BALB/c nude mice; conditions: HCT116 tumors
Description: (§1) The present experiment was performed as a randomized and single-blinded trial. 5×10^6 HCT116 or 1×10^7 Huh7 cells were subcutaneously injected into dorsa of 4-week-aged BALB/c nude mice. When the size of tumors reached 50 mm^3, the mice were divided into groups, including an untreated control group (Control), a group treated with LCL161 alone (i.p. 20 mg/kg/d), a group infected with M1 alone (transplantable tumor of HCT116 cancer strain was injected with M1 virus via tail vein (2×10^6 PFU/time), and transplantable tumor of Huh7 cancer strain was injected with M1 virus via tail vein (5×10^5 PFU/time)) and a group treated with LCL161/M1 (LCL161 and M1 virus were administered in the same way at the same dose), and four injections was performed continuously (for HCT116, injection was conducted on day 5, day 6, day 7, and day 8; for Huh7, injection was conducted on day 10, day 11, day 12, and day 13). The weight, length and width of the tumor were measured every two days, and the volume of the tumor was calculated according to the formula: (length×width^2)/2. After measuring the volume of the tumor, one way ANOVA statistics was carried out, wherein *** indicates p<0.001, ** indicates p<0.01, and * indicates p<0.05.

[3] = tested on: transplantable tumor of Huh7 cancer strain; test: Transplantable tumor of Huh7 in nude mice; assay type: in vivo, BALB/c nude mice; conditions: Huh7 tumors; LCL161 i.p. 20 mg/kg/d; M1 tail vein 5×10^5 PFU/time; four injections day 10-13
Description: as §1

Caspase 3/7, 8, and 9 [4] = test: Caspase activity (chemiluminescence/MTT) in HCT116 cells; assay type: cell-based, human; conditions: M1 1 MOI, LCL161 5 μM, 72 hours, vs control
Description: (§2) The cells in the exponential growth phase were selected and added into a DMEM complete culture medium (containing 10% fetal bovine serum and 1% penicillin/streptomycin (Life Technologies)) to prepare a cell suspension. The cells were inoculated into a 96-well culture plate at a density of 4×10^3/well. After 12 hours, the cells were completely adherent to the walls of the culture plate. In this experiment, cultures were divided into a control group, a single drug group (using LCL161 alone), a group infected with M1, and a group treated with combined LCL161/M1. The doses used were as follows: cells were infected with M1 at 1 MOI ([…]) or 0.1 MOI (Huh7 cells), and LCL161 was added at a concentration of 5 μM. Each of the above mentioned treatment groups was divided in four for detecting MTT and the activities of Caspase 3/7, 8 and 9. 72 hours after treatment, the reagent for detecting Caspase3/7, 8 and 9 was added into each well on the basis of the volume, and the resulting wells were placed into the incubator for a further half hour. The liquid was absorbed into the opaque 96 well plate for measuring the chemical luminous intensity by a microplate reader. Meanwhile, MTT was detected to calculate the survival rate of the cells. The activity of Caspase was standardized by the ratio of chemiluminescent value to MTT value.

Caspase 3/7, 8, and 9 [5] = test: Caspase activity (chemiluminescence/MTT) in Huh7 cells; assay type: cell-based, human; conditions: M1 0.1 MOI, LCL161 5 μM, 72 hours, vs control
Description: as §2

SMILES	apoptosis rate (pancreatic cancer)	survival rate [1]	reduction in tumor volume as compared with the control group ([2]; LCL161 i.p. 20 mg/kg/d, M1 tail vein 2×10^6 PFU/time, four injections day 5-8)	tumor volume (in words) ([2]; same dosing, vs control group)	reduction in tumor volume as compared with the control group [3]	activities of Caspase 3/7, 8, and 9 (Caspase 3/7, 8, and 9 [4])	activities of Caspase 3/7, 8, and 9 (Caspase 3/7, 8, and 9 [5])
Nc1ccn([C@@H]2O[C@H](CO)[C@@H](O)C2(F)F)c(=O)n1 [Gemcitabine]	58%	–	–	–	–	–	–
CN[C@@H](C)C(=O)N[C@H](C(=O)N1CCC[C@H]1c1nc(C(=O)c2ccc(F)cc2)cs1)C1CCCCC1 [LCL161]	–	92.6%	29.15%	only a slight reduction in tumor volume	18.1%	only slightly up-regulated	only slightly up-regulated
